Experimental data published in patent US20260174739A1 (priority 2022, published 2026).
Like-named read-outs stand apart in the source and are kept apart here.

Legend:
[1] = biological target: T1, NMDA receptor (N-methyl-D-aspartate receptor, NR1/2A) (Homo sapiens, UniProt Q05586+Q12879); test: NMDA receptor antagonistic activity assay (whole cell manual patch clamp, channel currents); assay type: cell-based; settings: HEK293 cells transiently expressing hNR1/2A; current evoked by 100 μM glutamic acid + 100 μM glycine at -70 mV; read-out: NMDAR antagonistic activity (IC50)
T1 construct: T2A self-cleaving peptide (linker between NR1 and 2A) (C)
T1 sequence (Q12879 23-1464, other chains not shown): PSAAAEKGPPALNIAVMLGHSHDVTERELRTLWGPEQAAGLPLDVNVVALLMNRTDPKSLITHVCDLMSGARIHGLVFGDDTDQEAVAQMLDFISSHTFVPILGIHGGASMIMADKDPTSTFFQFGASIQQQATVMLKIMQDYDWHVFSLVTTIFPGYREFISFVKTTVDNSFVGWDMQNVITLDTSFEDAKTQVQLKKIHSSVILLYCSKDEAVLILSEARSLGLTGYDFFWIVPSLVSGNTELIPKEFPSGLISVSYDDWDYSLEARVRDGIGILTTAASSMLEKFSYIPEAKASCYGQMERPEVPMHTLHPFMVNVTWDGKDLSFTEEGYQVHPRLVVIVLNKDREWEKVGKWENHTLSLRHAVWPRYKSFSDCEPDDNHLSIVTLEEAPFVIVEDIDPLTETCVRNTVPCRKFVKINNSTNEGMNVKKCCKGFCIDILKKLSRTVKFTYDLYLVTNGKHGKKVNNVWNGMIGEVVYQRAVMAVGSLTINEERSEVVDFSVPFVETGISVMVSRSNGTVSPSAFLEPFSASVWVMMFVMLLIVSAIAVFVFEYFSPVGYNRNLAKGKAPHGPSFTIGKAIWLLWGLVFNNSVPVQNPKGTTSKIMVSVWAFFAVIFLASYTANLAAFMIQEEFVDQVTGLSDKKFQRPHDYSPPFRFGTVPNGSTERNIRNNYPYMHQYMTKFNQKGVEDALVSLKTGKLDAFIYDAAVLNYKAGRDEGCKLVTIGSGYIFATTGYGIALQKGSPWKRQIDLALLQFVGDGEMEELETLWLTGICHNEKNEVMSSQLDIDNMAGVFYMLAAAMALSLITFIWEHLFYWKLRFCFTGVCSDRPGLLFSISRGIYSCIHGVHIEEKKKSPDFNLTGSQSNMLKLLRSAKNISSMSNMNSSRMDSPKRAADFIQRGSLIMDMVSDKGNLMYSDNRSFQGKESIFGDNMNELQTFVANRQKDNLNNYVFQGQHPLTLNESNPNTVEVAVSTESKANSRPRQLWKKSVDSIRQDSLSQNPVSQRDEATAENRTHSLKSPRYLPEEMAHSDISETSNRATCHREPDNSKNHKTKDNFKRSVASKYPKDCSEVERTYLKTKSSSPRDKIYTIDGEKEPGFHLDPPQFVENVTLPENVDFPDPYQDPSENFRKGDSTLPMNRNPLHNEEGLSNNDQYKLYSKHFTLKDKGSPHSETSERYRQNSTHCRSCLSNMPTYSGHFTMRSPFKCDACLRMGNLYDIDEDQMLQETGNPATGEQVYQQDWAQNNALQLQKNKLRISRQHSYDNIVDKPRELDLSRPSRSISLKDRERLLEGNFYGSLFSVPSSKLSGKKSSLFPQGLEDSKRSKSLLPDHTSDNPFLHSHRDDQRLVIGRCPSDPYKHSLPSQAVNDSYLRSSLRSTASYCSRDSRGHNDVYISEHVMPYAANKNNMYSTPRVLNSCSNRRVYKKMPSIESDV
Protocol: The effect of the compounds on NMDA receptor (N-methyl-D-aspartate receptor, NR1/2A) channel currents was tested using the electrophysiological whole cell manual patch clamp method.
The HEK293 cell line was cultured in DMEM medium containing 10% fetal bovine serum at 37° C. with 5% carbon dioxide.
Preparation of compound: on the day of testing, the stock solution of the compound of the present disclosure was diluted with DMSO to an intermediate concentration, which was then further diluted with an extracellular solution (containing 100 μM glutamic acid+100 µM glycine) to obtain the final concentration to be tested. […] Electrophysiological recording
Currents evoked by 100 μM glutamic acid (containing 100 μM glycine) were recorded at room temperature from HEK293 cells transiently expressing NMDA receptor channels using the whole-cell patch clamp technique. Glass microelectrodes were formed by pulling a glass electrode blank (BF150-86-10, Sutter) using a puller. The tip resistance after perfusion of electrode internal solution was about 2-5 MΩ. The glass microelectrodes could be connected to a patch clamp amplifier after being inserted into amplifier probes. […] After whole-cell recording was achieved, the cell was clamped at −70 mV. A gravity-driven rapid administration system was used to apply 100 μM glutamic acid (containing 100 μM glycine) to induce the channel current. After the current stabilized, the 100 μM glutamic acid (containing 100 μM glycine) was administered, and changes in current amplitude were observed. The compounds were administered sequentially from low to high concentration, followed by a final administration of 100 μM glutamic acid (containing 100 μM glycine). Each test concentration of the compound was applied for at least 20 s, and at least 2 cells (n≥2) were tested for each concentration. • d. Data processing
Data were analyzed using pClamp, GraphPad Prism 8, and Excel software.
The IC50 of the compound was calculated using the GraphPad Prism 8 software by equation fitting as follows:
[formula] • where X is the Log value of the test concentration of the test sample, Y is the inhibition percentage at the corresponding concentration, and Bottom and Top are the minimum and maximum inhibition percentages, respectively.

[2] = Human liver microsome assay (metabolic stability); assay type: in vitro ADME; settings: pH 7.4
In short: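 Human liver microsomes 0.2 mg/mL with 1 μM compound, 3.0 mM MgCl2 and 2.0 mM NADPH in 0.1 M phosphate pH 7.4, 37 °C; sampled at 0–60 min. LC-MS/MS peak-area ratio to internal standard; T1/2 and CLint from slope of ln residual versus time.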

male C57 mice = test: Forced swim test; assay type: in vivo; settings: intraperitoneal injection, test 0.5 h after dosing, motionless time in last 4 min
Protocol: Drug: the compound of the present disclosure was first uniformly mixed with 5% DMSO and 5% Solutol® HS 15. hysiological saline was then added to make up 90% of the final volume. The mixture was prepared at an appropriate concentration immediately before use.
Animal: male C57 mice, about 22 g. The animals were randomly divided into a blank control group and test drug groups, 8 animals per group, and mice in each group were administered either the vehicle or the test compound via intraperitoneal injection.
Experimental steps: the mice were subjected to forced swim test 0.5 h after dosing. The water level in the forced swim device was 45 cm, and the water temperature was 25° C. The mice were placed in an experimental room to adapt to the environment for 1 h before the experiment began. When the experiment began, the mice were placed in the device for 6 min, and the whole process was recorded by a camera. Only the motionless time of the mice in the last 4 min was counted when data were analyzed.

human DAT = human DAT (Homo sapiens, UniProt Q01959); test: DAT transporter inhibitory activity test (neurotransmitter transporter uptake assay kit); assay type: cell-based
Chain of human DAT (Q01959 whole entry): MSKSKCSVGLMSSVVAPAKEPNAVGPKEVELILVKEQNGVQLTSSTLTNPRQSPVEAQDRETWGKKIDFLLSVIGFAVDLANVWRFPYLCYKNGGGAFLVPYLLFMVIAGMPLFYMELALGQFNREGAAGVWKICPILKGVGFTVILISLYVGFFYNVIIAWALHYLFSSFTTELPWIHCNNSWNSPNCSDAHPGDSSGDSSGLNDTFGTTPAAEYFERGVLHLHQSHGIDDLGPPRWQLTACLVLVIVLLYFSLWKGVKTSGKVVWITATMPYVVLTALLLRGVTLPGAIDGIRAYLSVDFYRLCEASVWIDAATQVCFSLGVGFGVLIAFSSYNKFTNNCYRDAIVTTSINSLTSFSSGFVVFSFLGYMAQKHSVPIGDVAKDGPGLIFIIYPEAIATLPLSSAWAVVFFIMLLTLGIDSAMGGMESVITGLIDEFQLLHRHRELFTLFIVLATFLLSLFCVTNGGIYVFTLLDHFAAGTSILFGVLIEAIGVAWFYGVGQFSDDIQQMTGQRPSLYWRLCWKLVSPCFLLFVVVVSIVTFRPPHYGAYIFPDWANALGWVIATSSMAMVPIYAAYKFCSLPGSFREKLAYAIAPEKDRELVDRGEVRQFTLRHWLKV

human NET = human NET (Homo sapiens, UniProt P23975); test: NET transporter inhibitory activity test (neurotransmitter transporter uptake assay kit); assay type: cell-based
Chain of human NET (P23975 whole entry): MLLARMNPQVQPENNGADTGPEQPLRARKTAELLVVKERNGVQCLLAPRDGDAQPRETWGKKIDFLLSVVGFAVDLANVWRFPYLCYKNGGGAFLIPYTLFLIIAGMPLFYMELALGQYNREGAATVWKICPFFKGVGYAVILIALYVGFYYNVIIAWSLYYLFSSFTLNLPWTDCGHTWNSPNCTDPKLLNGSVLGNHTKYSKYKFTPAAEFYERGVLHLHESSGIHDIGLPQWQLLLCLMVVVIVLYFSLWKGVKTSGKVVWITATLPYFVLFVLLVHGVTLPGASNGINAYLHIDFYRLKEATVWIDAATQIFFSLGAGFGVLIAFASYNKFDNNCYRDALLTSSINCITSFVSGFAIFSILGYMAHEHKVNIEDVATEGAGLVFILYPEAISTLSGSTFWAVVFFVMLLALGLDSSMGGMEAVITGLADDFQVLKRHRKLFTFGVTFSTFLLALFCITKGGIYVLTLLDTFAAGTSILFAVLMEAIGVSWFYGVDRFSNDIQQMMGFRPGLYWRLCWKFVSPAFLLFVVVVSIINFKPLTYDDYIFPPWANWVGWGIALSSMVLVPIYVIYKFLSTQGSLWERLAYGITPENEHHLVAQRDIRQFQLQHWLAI
Protocol: Transporter inhibition of human DAT and NET expressed in HEK-293 cells was assessed using a neurotransmitter transporter uptake assay kit. The assay was performed as described in the kit instructions, using centanafadine as a positive control. The specific procedures were as follows:
First day cell plating: HEK 293T cells were digested with trypsin, centrifuged, resuspended with a medium, counted, and seeded into a 6 cm culture dish at a density of 3×10^6 cells/well.
Second day cell transfection: HEK 293T cells were subjected to medium exchange, and then A, B tubes were prepared for NET-pcDNA5/FRT plasmid to be transfected. 200 μL of Opti-MEM was added to tube A, and 10 μL of Lipofectamine™ 3000 was added. The mixture was mixed well. 200 μL of Opti-MEM was added to tube B, and 5 μg of NET-pcDNA5/FRT plasmid was added. The mixture was mixed well, and then 10 μL of P3000™ was added to tube B. The mixture was mixed well (plasmid to transfection reagent ratio 1 μg:2 μL). The diluted solution of tube A was added to the diluted solution of tube B. The mixture was mixed well, and incubated at room temperature for 15 min. Finally, the mixture was gently added to the cells that had been subjected to medium exchange, gently shaken to mix, and then incubated overnight in an incubator at 37° C. with a carbon dioxide concentration of 5%. The cells were used for compound functional activity assays 18-20 h after transfection.
• a) After overnight transfection of NET cells, the cells were digested with trypsin, resuspended with DMEM+10% Dialyzed FBS medium, seeded into a 384-well plate at 20000 cells/well, and incubated overnight. Stably transfected DAT cells were digested with trypsin, resuspended with DMEM+10% Dialyzed FBS medium, seeded into a 384-well plate at 2500 cells/well, and incubated overnight. • b) 1× Assay buffer was prepared according to the kit instruction for later use; the positive compound and the test compound were serially diluted with DMSO, and then diluted to 2× with 1× assay buffer. • c) The medium was removed from the 384-well plate by centrifugation. • d) 16 μL of the compound prepared in step b) was added to corresponding experimental wells, wherein an initial concentration of 2× positive control compound was added to the positive control well, and 0.2% DMSO buffer was added to the negative control well. After centrifuging, the plate was incubated at 37° C. for 30 min. • e) A detection reagent was prepared using 1×HBSS, and 16 μL of the detection reagent was added to each well. After centrifuging, the plate was incubated at 37° C. for 60 min. • f) After incubation, the reading at 510 nm under the excitation of the detection wavelength of 425 nm was measured using a microplate reader. Curve fitting and IC50 calculation were performed using GraphPad Prism software nonlinear regression method.

Sigma2 receptor = Sigma2 receptor (Homo sapiens, UniProt Q5BJF2); test: Sigma receptor affinity assay ([3H]-DTG binding), Sigma2R
Chain of Sigma2 receptor (Q5BJF2 whole entry, species assumed): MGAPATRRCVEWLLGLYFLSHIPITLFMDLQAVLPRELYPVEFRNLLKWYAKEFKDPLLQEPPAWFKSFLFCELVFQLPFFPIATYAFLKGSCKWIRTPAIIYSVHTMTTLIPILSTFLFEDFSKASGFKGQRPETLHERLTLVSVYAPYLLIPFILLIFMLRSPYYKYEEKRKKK
Protocol: (§1) Cell membrane: the membrane protein adopted in the experiment was extracted from an HEK293 cell strain stably expressing Sigmal receptor and an HEK293 cell strain stably expressing Sigma2 receptor, which were constructed by WuXi AppTec.
(§2) • 1) Detection buffer: 50 mM Tris-HCl, pH=7.4, stored at 4° C. • 2) Sigma 1R assay plate washing buffer: 50 mM Tris-HCl, pH=7.4, stored at 4° C.; sigma2R assay plate washing buffer: 50 mM Tris-HCl, 100 mM NaCl, pH=7.4, stored at 4° C. • 3) The compounds were diluted to each working concentration: 4-fold serial gradient dilutions for 8 concentrations.
The affinity inhibition constant Ki was calculated using the Cheng Prusoff equation: […]

human SERT = human SERT (Homo sapiens, UniProt P31645); test: Inhibitory activity assay against 5-HT transporter (neurotransmitter transporter uptake assay kit); assay type: cell-based; settings: HEK-293 cells overexpressing human SERT; read-out: 5-HTT (IC50)
Chain of human SERT (P31645 whole entry): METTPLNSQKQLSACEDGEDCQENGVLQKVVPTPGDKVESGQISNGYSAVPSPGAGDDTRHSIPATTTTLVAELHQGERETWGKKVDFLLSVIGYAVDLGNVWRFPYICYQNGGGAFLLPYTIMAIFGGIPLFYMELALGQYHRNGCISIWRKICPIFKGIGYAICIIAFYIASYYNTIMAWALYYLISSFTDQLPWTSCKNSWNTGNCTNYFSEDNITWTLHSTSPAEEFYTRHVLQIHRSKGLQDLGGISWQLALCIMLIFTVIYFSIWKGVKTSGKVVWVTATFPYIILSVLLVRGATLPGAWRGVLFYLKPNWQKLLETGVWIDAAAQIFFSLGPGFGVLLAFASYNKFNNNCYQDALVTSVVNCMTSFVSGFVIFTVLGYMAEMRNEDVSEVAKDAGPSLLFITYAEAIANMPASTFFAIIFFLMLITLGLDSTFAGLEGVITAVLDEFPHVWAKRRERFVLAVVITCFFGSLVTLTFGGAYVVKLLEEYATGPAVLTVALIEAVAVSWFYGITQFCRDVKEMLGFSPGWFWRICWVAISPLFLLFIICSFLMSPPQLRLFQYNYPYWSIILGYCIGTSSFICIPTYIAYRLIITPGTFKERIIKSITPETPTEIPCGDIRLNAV
Protocol: In HEK-293 cells overexpressing human SERT, the transporter inhibitory effect of the test compound on human SERT was assayed using a Neurotransmitter transporter uptake assay kit (Molecular devices).

[3] = In vivo metabolism (pharmacokinetic) experiment in mice; design: species or system male ICR mice; settings: mouse
In short: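 Fasted (12 h) male ICR mice received compound in 5% DMSO/5% Solutol HS15/90% saline at 2.5 mg/kg iv or 10 mg/kg po. Plasma and brain sampled 0.083–8 h (n=3 per time point) and analysed by LC-MS/MS. Parameters derived by non-compartmental analysis.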

Sigma1 receptor = Sigma1 receptor (Homo sapiens, UniProt Q99720); test: Sigma receptor affinity assay ([3H]-DTG binding), Sigma1R
Chain of Sigma1 receptor (Q99720 whole entry): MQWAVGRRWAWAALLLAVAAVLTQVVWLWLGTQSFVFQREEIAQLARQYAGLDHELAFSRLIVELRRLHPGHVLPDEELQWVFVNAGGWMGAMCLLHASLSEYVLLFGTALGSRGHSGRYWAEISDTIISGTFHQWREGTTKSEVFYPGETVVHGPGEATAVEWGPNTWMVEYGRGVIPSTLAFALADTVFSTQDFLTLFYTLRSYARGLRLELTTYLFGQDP
Protocol: as §1, §2
The cell membrane solution and isotope solution were prepared with the pre-cooled detection buffer, with the following configuration information: the membrane concentration was 10 μg/well, and the final concentration of isotopic ligand [3H]-DTG was 5 nM. • 5) After the test compound and the positive control were diluted to the working concentration, 1 μL was added to each well of the assay plate. […] […]. The affinity inhibition constant Ki was calculated using the Cheng Prusoff equation:

[4] = HEK293 membranes stably expressing Sigma2 receptor, [3H]-DTG 5 nM, read-out: Sigma2R (Ki)
[5] = human liver microsomes 0.2 mg/mL, 1 μM test drug, NADPH, 37° C., read-out: Half-life (t1/2, min)
[6] = human liver microsomes 0.2 mg/mL, 1 μM test drug, NADPH, 37° C., read-out: Intrinsic clearance (Clint, mL/min/kg)
[7] = male ICR mice, oral 10 mg/kg vs iv 2.5 mg/kg, read-out: F (%)
[8] = male ICR mice, oral 10 mg/kg, plasma, read-out: AUC0-inf(po)
[9] = male ICR mice, oral 10 mg/kg, plasma, read-out: Cmax (po)
[10] = male ICR mice, oral 10 mg/kg, plasma, read-out: T1/2 (po) (converted)
[11] = DAT stably transfected HEK cells, read-out: DAT (IC50)

“N^4-methyl-4-phenyl-4,5,6,7-tetrahydrobenzothiazole-2,4-diamine [rac-A39]” showed an IC50 [1] of 12000 nM.
In the case of `Nc1nc2c(s1)CC(c1ccccc1)(N1CCCCC1)CC2` (racemic) [rac-A48, 6-phenyl-6-(piperidin-1-yl)-4,5,6,7-tetrahydrobenzothiazol-2-amine], the CLint scaled at 1 μM ([2]; human, microsomes) is reported as 7.4 mL/min/kg, the half-life at 1 μM ([2]; human, microsomes) is reported as 547 min and the “Effective dose” value (male C57 mice) is reported as 1 mg/kg. The IC50 (human DAT) was 760 nM and the IC50 (human NET; NET transiently transfected HEK 293T cells, read-out: NET (IC50)) was 4600 nM.
In the case of `N[C@]1(c2ccccc2)CCc2ccsc2C1` [R-A19], the Ki (Sigma2 receptor; [4]) is reported as 1270 nM and the IC50 (human SERT) is reported as 1200 nM.
With `c1ccc([C@]2(N3CCCC3)CCc3[nH]ncc3C2)cc1` [S-A12] the IC50 [1] was 180 nM.
With `CNC1(c2ccccc2)CCc2ncsc2C1` (racemic) [rac-A13, N-methyl-6-phenyl-4,5,6,7-tetrahydrobenzothiazol-6-amine] the half-life at 1 μM [2, 5] was 266 min, the CLint scaled at 1 μM [2, 6] was 15.2 mL/min/kg and the bioavailability [3, 7] was 78%. It also gave an AUC(0-inf) [3, 8] of 845 ng·h/mL, a Cmax [3, 9] of 518 ng/mL and a half-life [3, 10] of 1.98 h. The Ki (Sigma2 receptor) was 308 nM and the “Effective dose” value (male C57 mice) was 2.5 mg/kg.
Work on `NC1(c2ccccc2)CCc2ccsc2C1` (racemic) [rac-A19, 6-phenyl-4,5,6,7-tetrahydrobenzothiophen-6-amine] yielded a half-life at 1 μM [2, 5] of 80 min, a CLint scaled at 1 μM [2, 6] of 50.6 mL/min/kg and a bioavailability [3, 7] of 48%. It also gave an AUC(0-inf) [3, 8] of 797 ng·h/mL, a Cmax [3, 9] of 284 ng/mL and a half-life [3, 10] of 2.84 h. It also gave a Ki (Sigma2 receptor) of 523 nM.
In the case of `CN[C@@]1(c2ccccc2)CCc2ncsc2C1` [S-A13], the IC50 [1] is reported as 2500 nM and the Ki (Sigma2 receptor; [4]) is reported as 257 nM.
`N[C@@]1(c2ccccc2)CCc2ccsc2C1` [S-A19] gave a Ki (Sigma2 receptor; [4]) of 1120 nM.
In the case of `CNC1(c2ccccc2)CCc2nc(N)sc2C1` (racemic) [rac-A3, N^6-methyl-6-phenyl-4,5,6,7-tetrahydrobenzothiazole-2,6-diamine], the AUC(0-inf) ([3]; male, ICR, po, 10 mg/kg, AUC0-inf(po) (ng*h/mL)) is reported as 1160 ng·h/mL, the Cmax ([3]; male, ICR, po, 10 mg/kg, Cmax (po) (ng/mL)) is reported as 330 ng/mL and the bioavailability ([3]; male, ICR, po, 10 mg/kg, F (%)) is reported as 56%. For the same molecule, the half-life ([3]; male, ICR, po, 10 mg/kg, T1/2 (po) (h)) was 2.85 h, the Ki (Sigma2 receptor; [4]) was 124 nM and the “Effective dose” value (male C57 mice) was 3 mg/kg. It also gave an IC50 (human SERT) of 1200 nM and an IC50 (human DAT) of 1000 nM.
Work on `c1ccc([C@]2(N3CCCCC3)CCc3[nH]ncc3C2)cc1` [S-A70] yielded an IC50 [1] of 840 nM.
`CN[C@@]1(c2ccccc2)CCc2nc(N)sc2C1` [S-A3] gave a Ki (Sigma2 receptor; [4]) of 990 nM and an IC50 (human DAT; [11]) of 1600 nM.
With `CN[C@]1(c2ccccc2)CCc2nc(N)sc2C1` [R-A3] the Ki (Sigma2 receptor; [4]) was 1760 nM and the IC50 (human SERT) was 1200 nM.
With `Nc1nc2c(s1)CC(c1cccc(Cl)c1)(N1CCCCC1)CC2` (racemic) [rac-A49, 6-(3-chlorophenyl)-6-(piperidin-1-yl)-4,5,6,7-tetrahydrobenzothiazol-2-amine] the half-life at 1 μM [2, 5] was 117 min, the CLint scaled at 1 μM [2, 6] was 34.7 mL/min/kg and the IC50 (human SERT) was 1200 nM. For the same molecule, the IC50 (human DAT; [11]) was 330 nM and the IC50 (human NET) was 2500 nM.
`CN[C@]1(c2ccccc2)CCc2ncsc2C1` [R-A13] showed a Ki (Sigma2 receptor; [4]) of 289 nM.
Work on `c1ccc([C@@]2(N3CCCCC3)CCc3[nH]ncc3C2)cc1` [R-A70] yielded an IC50 [1] of 16000 nM and an IC50 (human DAT; [11]) of 8400 nM.
For `CNC1(c2ccccc2)CCc2sccc2C1` (racemic) [rac-A25, N-methyl-5-phenyl-4,5,6,7-tetrahydrobenzothiophen-5-amine], the Ki (Sigma1 receptor) was 280 nM.
